Test results from patent US11306079B2, “3-(5-amino-pyrazin-2-yl)-benzenesulfonamide derivatives and related compounds as PI3K-gamma kinase inhibitors” (Incyte Corporation, priority 2017, dated 2022).
Structures can show the parent of a compound that is named as a salt.

Columns and labels:
[1] = biological target: PI3Kγ (p110γ) Recombinant Human Protein (Homo sapiens (Human), UniProt P48736); test: PI3K-γ Scintillation Proximity Assay; assay type: biochemical; conditions: 20 μM PIP2, 2 μM ATP, 13 nM PI3Kγ, 120 min, room temperature
Text: Example B. PI3K-γ Scintillation Proximity Assay
(§1) [γ-^33P]ATP (10 mCi/mL) and Wheat Germ Agglutinin (WGA) YSi SPA Scintillation Beads was purchased from Perkin-Elmer (Waltham, Mass.). Lipid kinase substrate, D-myo-Phosphatidylinositol 4,5-bisphosphate (PtdIns(4,5)P2)D (+)-sn-1,2-di-O-octanoylglyceryl, 3-O-phospho linked (PIP2), CAS 204858-53-7, was purchased from Echelon Biosciences (Salt Lake City, Utah). PI3Kγ (p110γ) Recombinant Human Protein was purchased from Life technology (Grand island, NY), ATP, MgCl2, DTT, EDTA, MOPS and CHAPS were purchased from Sigma-Aldrich (St. Louis, Mo.).
(§2) The kinase reaction was conducted in polystyrene 384-well Greiner Bio-one white plate from Thermo Fisher Scientific in a final volume of 25 μL. Inhibitors were first diluted serially in DMSO and added to the plate wells before the addition of other reaction components. The final concentration of DMSO in the assay was 2%. The PI3Kγ assay was carried out at room temperature in 20 mM MOPS, pH 6.7, 10 mM MgCl2, 5 mM DTT and CHAPS 0.03%. Reactions were initiated by the addition of ATP, the final reaction mixture consisted of 20 μM PIP2, 2 μM ATP, 0.5 μCi [γ-^33P] ATP, 13 nM PI3Kγ. Reactions were incubated for 120 min and terminated by the addition of 40 μL SPA beads suspended in quench buffer: 163 mM potassium phosphate pH 7.8, 20% glycerol, 25 mM EDTA. The final concentration of SPA beads is 1.0 mg/mL. After the plate sealing, plates were shaken overnight at room temperature and centrifuged at 1500 rpm for 10 min, the radioactivity of the product was determined by scintillation counting on Topcount (Perkin-Elmer). IC50 determination was performed by fitting the curve of percent of the solvent control activity versus the log of the inhibitor concentration using the GraphPad Prism 6.0 software.

[2] = biological target: PI3Kδ (p110δ/p85α) Recombinant Human Protein (Homo sapiens (Human), UniProt O00329); test: PI3Kδ Scintillation Proximity Assay; assay type: biochemical; conditions: 20 μM PIP2, 2 μM ATP, 3.4 nM PI3Kδ, 120 min, room temperature
Text: Example C. PI3Kδ Scintillation Proximity Assay
as §1, with “PI3Kδ (p110δ/p85α)” for “PI3Kγ (p110γ)”, “Eurofins (St Charles, Mo.).” for “Life technology (Grand island, NY),”
as §2, with “PI3Kδ” for “PI3Kγ”, “3.4” for “13”, “PI3Kδ.” for “PI3Kγ.”

[3] = system: Phosphorylated Ribosomal Protein S6 (RPS6) in THP-1 cells; test: THP-1 RPS6 ELISA Assay; assay type: cell-based; conditions: Homo sapiens; serum starved THP-1 cells, 2 hours with compound, 10 nM MCP-1 for 15 minutes, Phospho-RPS6 ELISA; read-out: PI3Kγ_THP1_RPS6_ELISA IC50
Procedure: Example A. THP-1 RPS6 ELISA Assay
To measure the Phosphorylated Ribosomal Protein S6 (RPS6) in cell lysates, THP-1 cells (Human Acute Monocytic Leukemia) are purchased from ATCC (Manassas, Va.) and maintained in RPMI with 10% FBS (Gibco/Life Technologies, Carlsbad, Calif.). For the assay, THP-1 cells are serum starved overnight in RPMI, then plated in RPMI (2×10^5 cells/well in 90 μL) into 96-well flat-bottom tissue culture treated plates (Corning, Corning, N.Y.), in the presence or absence of a concentration range of test compounds. Covered plates are incubated for 2 hours at 37° C., 5% CO2 then treated with or without 10 nM MCP-1 (MYBioSource, San Diego, Calif.) for 15 minutes at 37° C., 5% CO2. Plates are centrifuged at 1600 RPM and supernatants are removed. Cells are lysed in Lysis Buffer (Cell Signaling, Danvers, Mass.) with Protease Inhibitor (Calbiochem/EMD, Germany), PMSF (Sigma, St Louis Mo.), HALTS (Thermo Fisher, Rockford, Ill.) for 30 min on wet ice. Cell lysates are frozen at −80° C. before testing. The lysates are tested in the Human/Mouse/Rat Phospho-RPS6 ELISA (R&D Systems, Inc. Minn, Minn.). The plate is measured using a microplate reader (SpectraMax M5—Molecular Devices, LLC Sunnyvale, Calif.) set to 450 nm with a wavelength correction of 540. IC50 determination is performed by fitting the curve of inhibitor percent inhibition versus the log of the inhibitor concentration using the GraphPad Prism 5.0 software.

Chain of PI3Kγ (p110γ) Recombinant Human Protein (P48736 whole entry): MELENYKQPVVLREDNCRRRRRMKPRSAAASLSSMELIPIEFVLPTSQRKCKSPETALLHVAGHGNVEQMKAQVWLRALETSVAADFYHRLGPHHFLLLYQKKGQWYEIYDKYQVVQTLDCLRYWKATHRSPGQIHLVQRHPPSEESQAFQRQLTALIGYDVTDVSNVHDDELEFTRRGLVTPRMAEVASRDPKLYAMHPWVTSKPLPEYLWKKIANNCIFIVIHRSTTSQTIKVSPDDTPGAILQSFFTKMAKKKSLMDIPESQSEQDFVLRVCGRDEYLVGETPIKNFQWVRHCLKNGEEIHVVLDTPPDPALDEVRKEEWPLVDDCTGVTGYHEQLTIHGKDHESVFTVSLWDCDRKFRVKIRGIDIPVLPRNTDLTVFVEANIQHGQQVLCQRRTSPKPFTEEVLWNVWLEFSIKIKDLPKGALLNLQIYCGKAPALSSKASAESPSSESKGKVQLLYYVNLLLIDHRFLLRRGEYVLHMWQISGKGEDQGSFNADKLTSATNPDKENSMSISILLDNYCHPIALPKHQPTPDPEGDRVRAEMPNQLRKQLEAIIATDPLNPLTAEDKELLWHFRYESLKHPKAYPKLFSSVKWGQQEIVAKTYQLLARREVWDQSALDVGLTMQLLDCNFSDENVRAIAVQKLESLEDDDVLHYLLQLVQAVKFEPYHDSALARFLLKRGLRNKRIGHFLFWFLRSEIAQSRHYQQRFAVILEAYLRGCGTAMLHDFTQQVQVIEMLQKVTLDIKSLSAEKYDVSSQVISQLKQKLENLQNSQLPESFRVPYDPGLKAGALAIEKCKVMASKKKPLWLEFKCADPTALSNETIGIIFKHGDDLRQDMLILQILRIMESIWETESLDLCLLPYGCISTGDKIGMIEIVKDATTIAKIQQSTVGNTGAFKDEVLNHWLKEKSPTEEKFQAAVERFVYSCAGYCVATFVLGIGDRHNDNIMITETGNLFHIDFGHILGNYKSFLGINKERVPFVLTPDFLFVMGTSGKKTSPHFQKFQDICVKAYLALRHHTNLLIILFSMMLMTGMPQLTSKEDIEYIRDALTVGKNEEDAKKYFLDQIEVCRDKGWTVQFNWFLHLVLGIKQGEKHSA
Chain of PI3Kδ (p110δ/p85α) Recombinant Human Protein (O00329 whole entry): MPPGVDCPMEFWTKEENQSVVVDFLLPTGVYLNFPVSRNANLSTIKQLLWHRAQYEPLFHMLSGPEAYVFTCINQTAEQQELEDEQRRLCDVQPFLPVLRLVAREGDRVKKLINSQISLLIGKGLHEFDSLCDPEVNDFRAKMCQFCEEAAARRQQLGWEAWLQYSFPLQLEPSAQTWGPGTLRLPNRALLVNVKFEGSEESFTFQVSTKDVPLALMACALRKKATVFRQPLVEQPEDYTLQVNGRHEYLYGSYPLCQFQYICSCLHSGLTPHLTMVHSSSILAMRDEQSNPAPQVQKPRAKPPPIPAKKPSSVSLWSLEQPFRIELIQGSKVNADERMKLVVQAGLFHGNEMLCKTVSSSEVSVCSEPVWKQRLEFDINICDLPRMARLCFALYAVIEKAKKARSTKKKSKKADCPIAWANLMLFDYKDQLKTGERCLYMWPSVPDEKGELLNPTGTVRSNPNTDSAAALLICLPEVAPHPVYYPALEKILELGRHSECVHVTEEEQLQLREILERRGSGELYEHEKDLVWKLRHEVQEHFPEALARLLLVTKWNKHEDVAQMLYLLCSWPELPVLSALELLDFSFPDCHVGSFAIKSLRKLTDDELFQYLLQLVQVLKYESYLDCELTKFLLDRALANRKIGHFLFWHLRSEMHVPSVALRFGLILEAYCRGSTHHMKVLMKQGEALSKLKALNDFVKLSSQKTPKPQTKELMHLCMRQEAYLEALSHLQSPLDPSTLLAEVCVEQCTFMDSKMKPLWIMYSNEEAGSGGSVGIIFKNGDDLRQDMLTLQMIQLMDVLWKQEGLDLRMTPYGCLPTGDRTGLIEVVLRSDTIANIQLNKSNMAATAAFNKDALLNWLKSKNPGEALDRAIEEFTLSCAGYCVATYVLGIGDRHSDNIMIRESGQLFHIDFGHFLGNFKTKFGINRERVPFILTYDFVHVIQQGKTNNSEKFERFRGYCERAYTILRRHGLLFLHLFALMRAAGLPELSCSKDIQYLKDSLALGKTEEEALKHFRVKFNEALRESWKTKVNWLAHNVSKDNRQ
Chain of PI3Kδ (p110δ/p85α) Recombinant Human Protein (P27986 whole entry partner): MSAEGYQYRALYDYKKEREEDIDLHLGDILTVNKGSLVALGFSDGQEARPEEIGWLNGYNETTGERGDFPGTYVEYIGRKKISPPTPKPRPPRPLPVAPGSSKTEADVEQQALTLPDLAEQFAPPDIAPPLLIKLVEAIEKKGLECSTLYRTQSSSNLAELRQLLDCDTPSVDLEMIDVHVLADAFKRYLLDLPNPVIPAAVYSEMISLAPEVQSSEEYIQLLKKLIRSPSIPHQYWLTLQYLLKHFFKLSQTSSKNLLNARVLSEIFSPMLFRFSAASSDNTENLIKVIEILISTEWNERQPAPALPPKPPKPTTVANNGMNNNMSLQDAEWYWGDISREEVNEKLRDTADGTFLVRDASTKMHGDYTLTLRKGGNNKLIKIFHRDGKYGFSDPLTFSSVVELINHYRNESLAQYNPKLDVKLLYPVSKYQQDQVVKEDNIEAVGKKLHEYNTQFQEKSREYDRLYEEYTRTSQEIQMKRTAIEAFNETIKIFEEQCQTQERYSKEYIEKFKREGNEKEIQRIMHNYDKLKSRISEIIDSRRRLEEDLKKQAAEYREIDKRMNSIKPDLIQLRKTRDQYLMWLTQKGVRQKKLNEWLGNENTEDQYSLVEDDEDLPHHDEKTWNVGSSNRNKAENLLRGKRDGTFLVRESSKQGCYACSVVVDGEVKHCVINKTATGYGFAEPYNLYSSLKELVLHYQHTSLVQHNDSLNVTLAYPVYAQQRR

| SMILES | IC50 [1] [nM] | IC50 [2] [nM] | IC50 [3] [nM] |
| --- | --- | --- | --- |
| [2H]C([2H])([2H])c1ccc(S(=O)(=O)NC23CCN(CC2)C3)cc1-c1cnc(N)c(-c2ncn(C([2H])([2H])[2H])n2)n1 [Example 92, 3-(5-amino-6-(1-(methyl-d3)-1H-1,2,4-triazol-3-yl)pyrazin-2-yl)-N-(1-azabicyclo[2.2.1]heptan-4-yl)-4-(methyl-d3)benzenesulfonamide] | ≤ 100 | ≤ 100 | ≤ 500 |
| CCOC(=O)NC12CC(NS(=O)(=O)c3ccc(C)c(-c4cnc(N)c(-n5cncn5)n4)c3)(C1)C2 [Example 39, Ethyl 3-(3-(5-amino-6-(1H-1,2,4-triazol-1-yl)pyrazin-2-yl)-4-methylphenylsulfonamido)bicyclo[1.1.1]pentan-1-ylcarbamate Trifluoroacetate Salt] | ≤ 100 | ≤ 500 | ≤ 500 |
| Cc1ccc(S(=O)(=O)NC23CC(C(=O)N(C)C)(C2)C3)cc1-c1cnc(N)c(-n2cncn2)n1 [Example 33, 3-(3-(5-Amino-6-(1H-1,2,4-triazol-1-yl)pyrazin-2-yl)-4-methylphenylsulfonamido)-N,N-dimethylbicyclo[1.1.1]pentane-1-carboxamide trifluoroacetate salt] | ≤ 100 | ≤ 500 | – |
| O=C(O)C(F)(F)F.[2H]C([2H])([2H])c1ccc(S(=O)(=O)NC23CNC(C2)C3)cc1-c1cnc(N)c(-n2cncn2)n1 [Example 53, 3-(5-Amino-6-(1H-1,2,4-triazol-1-yl)pyrazin-2-yl)-N-(2-azabicyclo[2.1.1]hexan-4-yl)-4-(methyl-d3)benzenesulfonamide trifluoroacetate salt] | ≤ 100 | ≤ 500 | – |
| CNC(=O)C12CC(NS(=O)(=O)c3ccc(C)c(-c4cnc(N)c(-n5cncn5)n4)c3)(C1)C2 [Example 32, 3-(3-(5-Amino-6-(1H-1,2,4-triazol-1-yl)pyrazin-2-yl)-4-methylphenylsulfonamido)-N-methylbicyclo[1.1.1]pentane-1-carboxamide trifluoroacetate Salt] | ≤ 100 | < 2000 | – |
| Cc1ccc(S(=O)(=O)NC23CCC(CO)(CC2)OC3)cc1-c1cnc(N)c(-c2ccncc2C#N)n1 [Example 22, 3-(5-Amino-6-(3-cyanopyridin-4-yl)pyrazin-2-yl)-N-(1-(hydroxymethyl)-2-oxabicyclo[2.2.2]octan-4-yl)-4-methylbenzenesulfonamide trifluoroacetate salt] | < 2000 | ≥ 2000 | – |
| Cc1ccc(S(=O)(=O)NC23CCC(C#N)(C2)C3)cc1-c1cnc(N)c(-c2nn[nH]n2)n1 [Example 37, 3-(5-Amino-6-(2H-tetrazol-5-yl)pyrazin-2-yl)-N-(4-cyanobicyclo[2.1.1]hexan-1-yl)-4-methylbenzenesulfonamide Trifluoroacetate Salt] | ≤ 100 | ≥ 2000 | – |
| Cc1ccc(S(=O)(=O)NC23CC(C#N)(C2)C3)cc1-c1cnc(N)c(-c2nn[nH]n2)n1 [Example 36, 3-(5-Amino-6-(2H-tetrazol-5-yl)pyrazin-2-yl)-N-(3-cyanobicyclo[1.1.1]pentan-1-yl)-4-methylbenzenesulfonamide Trifluoroacetate Salt] | ≤ 100 | ≥ 2000 | – |

Other lines, results leading:

| IC50 [1] [nM] | IC50 [2] [nM] | IC50 [3] [nM] | SMILES |
| --- | --- | --- | --- |
| ≤ 100 | ≤ 100 | ≤ 100 | Cc1ccc(S(=O)(=O)NC23CCN(CC2)C3)cc1-c1cnc(N)c(-n2cccn2)n1 [Example 93, 3-(5-amino-6-(1H-pyrazol-1-yl)pyrazin-2-yl)-N-(1-azabicyclo[2.2.1]heptan-4-yl)-4-methylbenzenesulfonamide] |
| ≤ 100 | ≤ 100 | ≤ 100 | Cc1ncc(-c2cc(-c3cc(S(=O)(=O)NC45CC(CO)(C4)C5)ccc3C)cnc2N)s1 [Example 87, 3-(6-amino-5-(2-methylthiazol-5-yl)pyridin-3-yl)-N-(3-(hydroxymethyl)bicyclo[1.1.1]pen-tan-1-yl)-4-methylbenzenesulfonamide] |
| ≤ 500 | ≤ 500 | – | Cc1ccc(S(=O)(=O)NC23COC(CO)(C2)C3)cc1-c1cnc(N)c(-c2cn(C)nc2C)c1 [Example 84, 3-(6-amino-5-(1,3-dimethyl-1H-pyrazol-4-yl)pyridin-3-yl)-N-(1-(hydroxymethyl)-2-oxabicyclo[2.1.1]hexan-4-yl)-4-methylbenzenesulfonamide] |
| ≤ 100 | ≤ 500 | – | [2H]C([2H])([2H])c1ccc(S(=O)(=O)NC23CC(C2)N(C(C)C)C3)cc1-c1cnc(N)c(-n2cncn2)n1 [Example 60, 3-(5-Amino-6-(1H-1,2,4-triazol-1-yl)pyrazin-2-yl)-N-(2-isopropyl-2-azabicyclo[2.1.1]hexan-4-yl)-4-(methyl-d3)benzenesulfonamide Trifluoroacetate Salt] |
| ≤ 100 | < 2000 | – | [2H]C([2H])([2H])c1ccc(S(=O)(=O)NC23CC(CO)(C2)C3)cc1-c1cnc(N)c(-n2nccn2)n1 [Example 51, 3-(5-Amino-6-(2H-1,2,3-triazol-2-yl)pyrazin-2-yl)-N-(3-(hydroxymethyl)bicyclo[1.1.1]pentan-1-yl)-4-(methyl-d3)benzenesulfonamide Trifluoroacetate Salt] |
| – | – | ≤ 100 | [2H]C([2H])([2H])c1ccc(S(=O)(=O)NC23CCC(C#N)(C2)C3)cc1-c1cnc(N)c(-c2cncnc2)n1 [Example 64, 3-(5-Amino-6-(pyrimidin-5-yl)pyrazin-2-yl)-N-(4-cyanobicyclo[2.1.1]hexan-1-yl)-4-(methyl-d3)benzenesulfonamide trifluoroacetate salt] |
| ≤ 500 | ≤ 500 | – | [2H]C([2H])([2H])c1ccc(S(=O)(=O)NC23CNC(C2)C3)cc1-c1cnc(N)c(-n2nccn2)n1 [Example 52, 3-(5-Amino-6-(2H-1,2,3-triazol-2-yl)pyrazin-2-yl)-N-(2-azabicyclo[2.1.1]hexan-4-yl)-4-(methyl-d3)benzenesulfonamide Trifluoroacetate Salt] |
